Test results reported in patent US20230295162A1 (EÖTVÖS LORÁND TUDOMÁNYEGYETEM, priority 2020, published 2023).
Read-outs that look alike come from different tables or passages of the source.

Assays:
[1] = tested on: EBC-1 (lung, squamous cell carcinoma) cells; assay: Cell viability assay, CellTiter-Glo (Example 21); format: cell-based, human; details: 72 h treatment
Experimental: (§1) Effect of the selected compounds on cancer cell viability was measured via CellTiter-Glo® luminescent cell viability assay (Promega, Madison, WI, USA) according to the manufacturer's instructions. Cells were plated onto a flat-bottomed, white 96 well plate (BRANDplates®, cat. no.: 781965). Density of the seeded cells was optimized based on their size and growth rate, as the follows: Panc-1:750 cells/well; DU 145, PC-3, Capan-1, MIA PaCa-2, SCC-25, FaDu and EBC-1: 1000 cells/well; LNCaP, Detroit 562, MDA-MB-231 and MDA-MB-453 1500 cells/well. […] After the treatment, the luminescence signal was recorded using a microplate reader (BioTek Synergy 2 Multi-Mode Reader, BioTek, Winooski, VT, USA). Dose-response curves were generated by GraphPad Prism 8.4.2. software using a non-linear regression model (variable slope, four parameters), (see FIGS. 12-51).

[2] = tested on: PC-3 (prostate, adenocarcinoma) cells; assay: Cell viability assay, CellTiter-Glo (Example 21); format: cell-based, human; details: 72 h treatment
Experimental: as §1

[3] = tested on: Capan-1 (pancreas, adenocarcinoma) cells; assay: Cell viability assay, CellTiter-Glo (Example 21); format: cell-based, human; details: 72 h treatment
Experimental: as §1

[4] = tested on: LNCaP (prostate, carcinoma) cells; assay: Cell viability assay, CellTiter-Glo (Example 21); format: cell-based, human; details: 72 h
Experimental: as §1

[5] = tested on: Detroit 562 (pharynx, carcinoma) cells; assay: Cell viability assay, CellTiter-Glo (Example 21); format: cell-based, human; details: 72 h treatment
Experimental: as §1

[6] = tested on: SCC-25 (tongue, squamous cell carcinoma) cells; assay: Cell viability assay, CellTiter-Glo (Example 21); format: cell-based, human; details: 72 h treatment
Experimental: as §1

[7] = tested on: MDA-MB-453 (breast, carcinoma) cells; assay: Cell viability assay, CellTiter-Glo (Example 21); format: cell-based, human; details: 72 h treatment
Experimental: as §1

[8] = tested on: MDA-MB-231 (breast, adenocarcinoma) cells; assay: Cell viability assay, CellTiter-Glo (Example 21); format: cell-based, human; details: 72 h treatment
Experimental: as §1

[9] = tested on: DU 145 (prostate, carcinoma) cells; assay: Cell viability assay, CellTiter-Glo (Example 21); format: cell-based, human; details: 72 h
Experimental: as §1

[10] = tested on: Panc-1 (pancreas, carcinoma) cells; assay: Cell viability assay, CellTiter-Glo (Example 21); format: cell-based, human; details: 72 h treatment
Experimental: as §1

[11] = tested on: FaDu (pharynx, squamous cell carcinoma) cells; assay: Cell viability assay, CellTiter-Glo (Example 21); format: cell-based, human; details: 72 h treatment
Experimental: as §1

[12] = tested on: MIA PaCa-2 (pancreas, carcinoma) cells; assay: Cell viability assay, CellTiter-Glo (Example 21); format: cell-based, human; details: 72 h treatment
Experimental: as §1

[13] = tested on: PANC-1 (human pancreatic carcinoma) cells; assay: Impedance-based viability assay (xCELLigence SP), long treatment; format: cell-based; details: 72 h, read-out: cytotoxicity expressed in IC50, PANC-1
Source text: (Gibco®/Invitrogen Corporation, New York, NY, USA).
Data obtained from each experiment represent mathematical averages.

[14] = tested on: H2228 lung cancer cell line; assay: High-throughput screening, CellTiter-Glo cell viability assay at 100 nM; format: cell-based, human; details: Homo sapiens, NCI-H2228, HTS, compounds at 100 nM, 72 h, read-out: cytotoxicity expressed in IC50, H2228 (results of High throughput screening)
[15] = tested on: EBC-1 lung cancer cell line; assay: as above; format: cell-based, human; details: Homo sapiens, EBC-1, HTS, compounds at 100 nM, 72 h, read-out: cytotoxicity expressed in IC50, EBC-1 (results of High throughput screening)
[16] = tested on: Panc-1 human cell line; assay: Cytotoxicity on Panc-1, xCELLigence SP, IC50 after 24 h, 48 h, 72 h and 96 h (Example 22)

[N-]=[N+]=Nc1cccc(CN2CCC3=C(C2)C(=O)N(Cc2ccc(C(F)(F)F)cc2)C2=NCCN23)c1 [I/111, 7-(3-Azidobenzyl)-4-(4-(trifluoromethyl)benzyl)-2,4,6,7,8,9-hexahydroimidazo[1,2-a]pyrido[3,4-e]pyrimidin-5(1H)-one]
EBC-1 (lung, squamous cell carcinoma) cell viability (% of control) ([1]; 3.7 nM): 94.1 ± 3.0 % of control
EBC-1 (lung, squamous cell carcinoma) cell viability (% of control) ([1]; 11.1 nM): 54.0 ± 6.5 % of control
EBC-1 (lung, squamous cell carcinoma) cell viability (% of control) ([1]; 100 nM): 20.6 ± 0.6 % of control
EBC-1 (lung, squamous cell carcinoma) cell viability (% of control) ([1]; 300 nM): 20.0 ± 0.0 % of control
PC-3 (prostate, adenocarcinoma) cell viability (% of control) ([2]; 3.7 nM): 106.8 ± 2.4 % of control
PC-3 (prostate, adenocarcinoma) cell viability (% of control) ([2]; 11.1 nM): 75.5 ± 5.9 % of control
PC-3 (prostate, adenocarcinoma) cell viability (% of control) ([2]; 100 nM): 32.0 ± 3.2 % of control
PC-3 (prostate, adenocarcinoma) cell viability (% of control) ([2]; 300 nM): 31.3 ± 3.0 % of control
Capan-1 (pancreas, adenocarcinoma) cell viability (% of control) ([3]; 3.7 nM): 102.5 ± 4.0 % of control
Capan-1 (pancreas, adenocarcinoma) cell viability (% of control) ([3]; 11.1 nM): 95.1 ± 8.2 % of control
Capan-1 (pancreas, adenocarcinoma) cell viability (% of control) ([3]; 100 nM): 31.7 ± 1.7 % of control
Capan-1 (pancreas, adenocarcinoma) cell viability (% of control) ([3]; 300 nM): 30.8 ± 3.3 % of control
LNCaP cell viability ([4]; 3.7 nM): 97.1 ± 2.6 % of control
LNCaP cell viability ([4]; 11.1 nM): 32.4 ± 2.3 % of control
LNCaP cell viability ([4]; 100 nM): 11.8 ± 0.7 % of control
LNCaP cell viability ([4]; 300 nM): 11.7 ± 0.7 % of control
Detroit 562 (pharynx, carcinoma) cell viability (% of control) ([5]; 3.7 nM): 48.0 ± 21.7 % of control
Detroit 562 (pharynx, carcinoma) cell viability (% of control) ([5]; 11.1 nM): 32.8 ± 3.7 % of control
Detroit 562 (pharynx, carcinoma) cell viability (% of control) ([5]; 100 nM): 26.8 ± 2.8 % of control
Detroit 562 (pharynx, carcinoma) cell viability (% of control) ([5]; 300 nM): 28.8 ± 3.8 % of control
SCC-25 (tongue, squamous cell carcinoma) cell viability (% of control) ([6]; 3.7 nM): 98.3 ± 4.0 % of control
SCC-25 (tongue, squamous cell carcinoma) cell viability (% of control) ([6]; 11.1 nM): 79.0 ± 11.0 % of control
SCC-25 (tongue, squamous cell carcinoma) cell viability (% of control) ([6]; 100 nM): 32.5 ± 1.2 % of control
SCC-25 (tongue, squamous cell carcinoma) cell viability (% of control) ([6]; 300 nM): 36.4 ± 0.9 % of control
MDA-MB-453 (breast, carcinoma) cell viability (% of control) ([7]; 3.7 nM): 107.2 ± 5.9 % of control
MDA-MB-453 (breast, carcinoma) cell viability (% of control) ([7]; 11.1 nM): 45.7 ± 5.0 % of control
MDA-MB-453 (breast, carcinoma) cell viability (% of control) ([7]; 100 nM): 30.3 ± 1.0 % of control
MDA-MB-453 (breast, carcinoma) cell viability (% of control) ([7]; 300 nM): 28.8 ± 0.4 % of control
MDA-MB-231 (breast, adenocarcinoma) cell viability (% of control) ([8]; 3.7 nM): 102.7 ± 2.8 % of control
MDA-MB-231 (breast, adenocarcinoma) cell viability (% of control) ([8]; 11.1 nM): 98.5 ± 2.1 % of control
MDA-MB-231 (breast, adenocarcinoma) cell viability (% of control) ([8]; 100 nM): 56.9 ± 2.2 % of control
MDA-MB-231 (breast, adenocarcinoma) cell viability (% of control) ([8]; 300 nM): 52.8 ± 2.7 % of control
DU 145 cell viability ([9]; 3.7 nM): 93.6 ± 6.9 % of control
DU 145 cell viability ([9]; 11.1 nM): 33.8 ± 5.0 % of control
DU 145 cell viability ([9]; 100 nM): 7.1 ± 2.0 % of control
DU 145 cell viability ([9]; 300 nM): 8.1 ± 1.9 % of control
Panc-1 (pancreas, carcinoma) cell viability (% of control) ([10]; 3.7 nM): 106.1 ± 7.3 % of control
Panc-1 (pancreas, carcinoma) cell viability (% of control) ([10]; 11.1 nM): 99.6 ± 1.4 % of control
Panc-1 (pancreas, carcinoma) cell viability (% of control) ([10]; 100 nM): 50.1 ± 2.0 % of control
Panc-1 (pancreas, carcinoma) cell viability (% of control) ([10]; 300 nM): 49.7 ± 1.2 % of control
FaDu (pharynx, squamous cell carcinoma) cell viability (% of control) ([11]; 3.7 nM): 97.7 ± 3.9 % of control
FaDu (pharynx, squamous cell carcinoma) cell viability (% of control) ([11]; 11.1 nM): 66.8 ± 12.0 % of control
FaDu (pharynx, squamous cell carcinoma) cell viability (% of control) ([11]; 100 nM): 21.7 ± 5.4 % of control
FaDu (pharynx, squamous cell carcinoma) cell viability (% of control) ([11]; 300 nM): 22.1 ± 4.8 % of control
MIA PaCa-2 (pancreas, carcinoma) cell viability (% of control) ([12]; 3.7 nM): 100.2 ± 8.8 % of control
MIA PaCa-2 (pancreas, carcinoma) cell viability (% of control) ([12]; 11.1 nM): 90.6 ± 19.3 % of control
MIA PaCa-2 (pancreas, carcinoma) cell viability (% of control) ([12]; 100 nM): 16.5 ± 6.7 % of control
MIA PaCa-2 (pancreas, carcinoma) cell viability (% of control) ([12]; 300 nM): 16.2 ± 6.9 % of control
IC50 [13]: 10 nM
IC50 [14]: < 100 nM
IC50 [15]: < 100 nM
IC50 ([16]; PANC-1, 72 h, read-out: IC50 (72 h) [nM]): 20.1 ± 1.68 nM
IC50 ([16]; PANC-1, 96 h, read-out: IC50 (96 h) [nM]): 8.58 ± 0.256 nM
